From publication PMC10287695, “Non-covalent inhibitors of thioredoxin glutathione reductase with schistosomicidal activity in vivo” (Nature Communications, 2023)
Where “and” joins values, the source holds several entries; their conditions need not be identical. Identical values can stand only once.

Each compound was assayed on TGR in newly transformed schistosomula (NTS) (assay: TGR inhibition in NTS with TRFS-Green fluorescent probe). Conditions: NTS, 1hr, 5 µM.
Type: cell-based, S. mansoni
Protocol: TGR inhibition in NTS was assessed using a fluorescent probe TRFS-Green (Medchemexpress)[43]. NTS prepared as previously described and cultured in M199 supplemented with 5.5 mM D-glucose, penicillin-streptomycin and 5% heat inactivated fetal bovine serum were incubated at 37 °C in a clear bottom flat well plate in a 5% CO2 incubator overnight. […] NTS were further treated with TRFS-Green (10 µM) for additional 4 h and rinsed with M199 medium to remove residual TRFS-Green. Fluorescence images were obtained using Keyence BZ-X800. The quantification of fluorescence intensity upon the uptake of TRFS-Green by NTS was performed by a fluorescent microplate imager (BioTek Cytation3) (excitation, 438 nm; emission, 538 nm) hourly for 5 h and after 24 h.
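Note: untreated reference is NTS exposed to TRFS-Green probe alone.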

| SMILES | TGR inhibition visualized by TRFS-Green, Average | TGR inhibition visualized by TRFS-Green, single replicate |
| --- | --- | --- |
| Cc1oc(-c2ccc3c(c2)OCO3)nc1CN[C@@H]1C[C@@H]2C[C@H]([C@H]1C)C2(C)C [C1 (8VP70)] | 10571.8 | 10560.7 and 10583 |
| CCc1ccccc1-c1nc(CN[C@@H]2C[C@@H]3C[C@H]([C@H]2C)C3(C)C)c(C)o1 [C2 (8VP101)] | 10460.5 | 10308 and 10613 |

Same assay, conditions: NTS, 1hr, 15 µM

| SMILES | TGR inhibition visualized by TRFS-Green, Average | TGR inhibition visualized by TRFS-Green, single replicate |
| --- | --- | --- |
| Cc1oc(-c2ccc3c(c2)OCO3)nc1CN[C@@H]1C[C@@H]2C[C@H]([C@H]1C)C2(C)C [C1 (8VP70)] | 9457 | 9312 and 9602 |
| CCc1ccccc1-c1nc(CN[C@@H]2C[C@@H]3C[C@H]([C@H]2C)C3(C)C)c(C)o1 [C2 (8VP101)] | 10104 | 10086 and 10122 |

Same assay, conditions: NTS, 1hr, 30 µM

| SMILES | TGR inhibition visualized by TRFS-Green, Average | TGR inhibition visualized by TRFS-Green, single replicate |
| --- | --- | --- |
| Cc1oc(-c2ccc3c(c2)OCO3)nc1CN[C@@H]1C[C@@H]2C[C@H]([C@H]1C)C2(C)C [C1 (8VP70)] | 9252.5 | 9204 and 9301 |
| CCc1ccccc1-c1nc(CN[C@@H]2C[C@@H]3C[C@H]([C@H]2C)C3(C)C)c(C)o1 [C2 (8VP101)] | 9753 | 9694 and 9812 |

Same assay, conditions: NTS, 2hr, 5 µM

| SMILES | TGR inhibition visualized by TRFS-Green, Average | TGR inhibition visualized by TRFS-Green, single replicate |
| --- | --- | --- |
| Cc1oc(-c2ccc3c(c2)OCO3)nc1CN[C@@H]1C[C@@H]2C[C@H]([C@H]1C)C2(C)C [C1 (8VP70)] | 14162 | 14242 and 14082 |
| CCc1ccccc1-c1nc(CN[C@@H]2C[C@@H]3C[C@H]([C@H]2C)C3(C)C)c(C)o1 [C2 (8VP101)] | 13787 | 13840 and 13734 |

Same assay, conditions: NTS, 2hr, 15 µM

| SMILES | TGR inhibition visualized by TRFS-Green, Average | TGR inhibition visualized by TRFS-Green, single replicate |
| --- | --- | --- |
| Cc1oc(-c2ccc3c(c2)OCO3)nc1CN[C@@H]1C[C@@H]2C[C@H]([C@H]1C)C2(C)C [C1 (8VP70)] | 13529 | 13095 and 13963 |
| CCc1ccccc1-c1nc(CN[C@@H]2C[C@@H]3C[C@H]([C@H]2C)C3(C)C)c(C)o1 [C2 (8VP101)] | 11633.5 | 11622 and 11645 |

Same assay, conditions: NTS, 2hr, 30 µM

| SMILES | TGR inhibition visualized by TRFS-Green, Average | TGR inhibition visualized by TRFS-Green, single replicate |
| --- | --- | --- |
| Cc1oc(-c2ccc3c(c2)OCO3)nc1CN[C@@H]1C[C@@H]2C[C@H]([C@H]1C)C2(C)C [C1 (8VP70)] | 11887.5 | 11941 and 11834 |
| CCc1ccccc1-c1nc(CN[C@@H]2C[C@@H]3C[C@H]([C@H]2C)C3(C)C)c(C)o1 [C2 (8VP101)] | 11195 | 11148 and 11242 |

Same assay, conditions: NTS, 3hr, 5 µM

| SMILES | TGR inhibition visualized by TRFS-Green, Average | TGR inhibition visualized by TRFS-Green, single replicate |
| --- | --- | --- |
| Cc1oc(-c2ccc3c(c2)OCO3)nc1CN[C@@H]1C[C@@H]2C[C@H]([C@H]1C)C2(C)C [C1 (8VP70)] | 23711 | 23581 and 23841 |
| CCc1ccccc1-c1nc(CN[C@@H]2C[C@@H]3C[C@H]([C@H]2C)C3(C)C)c(C)o1 [C2 (8VP101)] | 19344 | 19467 and 19221 |

Same assay, conditions: NTS, 3hr, 15 µM

| SMILES | TGR inhibition visualized by TRFS-Green, Average | TGR inhibition visualized by TRFS-Green, single replicate |
| --- | --- | --- |
| Cc1oc(-c2ccc3c(c2)OCO3)nc1CN[C@@H]1C[C@@H]2C[C@H]([C@H]1C)C2(C)C [C1 (8VP70)] | 21817.5 | 21984 and 21651 |
| CCc1ccccc1-c1nc(CN[C@@H]2C[C@@H]3C[C@H]([C@H]2C)C3(C)C)c(C)o1 [C2 (8VP101)] | 14723.5 | 14460 and 14987 |

Same assay, conditions: NTS, 3hr, 30 µM

| SMILES | TGR inhibition visualized by TRFS-Green, Average | TGR inhibition visualized by TRFS-Green, single replicate |
| --- | --- | --- |
| Cc1oc(-c2ccc3c(c2)OCO3)nc1CN[C@@H]1C[C@@H]2C[C@H]([C@H]1C)C2(C)C [C1 (8VP70)] | 16831 | 16892 and 16770 |
| CCc1ccccc1-c1nc(CN[C@@H]2C[C@@H]3C[C@H]([C@H]2C)C3(C)C)c(C)o1 [C2 (8VP101)] | 13932.5 | 14033 and 13832 |

Same assay, conditions: NTS, 4hr, 5 µM

| SMILES | TGR inhibition visualized by TRFS-Green, Average | TGR inhibition visualized by TRFS-Green, single replicate |
| --- | --- | --- |
| Cc1oc(-c2ccc3c(c2)OCO3)nc1CN[C@@H]1C[C@@H]2C[C@H]([C@H]1C)C2(C)C [C1 (8VP70)] | 25462.5 | 25241 and 25684 |
| CCc1ccccc1-c1nc(CN[C@@H]2C[C@@H]3C[C@H]([C@H]2C)C3(C)C)c(C)o1 [C2 (8VP101)] | 23362.5 | 23074 and 23651 |

Same assay, conditions: NTS, 4hr, 15 µM

| SMILES | TGR inhibition visualized by TRFS-Green, Average | TGR inhibition visualized by TRFS-Green, single replicate |
| --- | --- | --- |
| Cc1oc(-c2ccc3c(c2)OCO3)nc1CN[C@@H]1C[C@@H]2C[C@H]([C@H]1C)C2(C)C [C1 (8VP70)] | 21898 | 21795 and 22001 |
| CCc1ccccc1-c1nc(CN[C@@H]2C[C@@H]3C[C@H]([C@H]2C)C3(C)C)c(C)o1 [C2 (8VP101)] | 14824.5 | 14826 and 14823 |

Same assay, conditions: NTS, 4hr, 30 µM

| SMILES | TGR inhibition visualized by TRFS-Green, Average | TGR inhibition visualized by TRFS-Green, single replicate |
| --- | --- | --- |
| Cc1oc(-c2ccc3c(c2)OCO3)nc1CN[C@@H]1C[C@@H]2C[C@H]([C@H]1C)C2(C)C [C1 (8VP70)] | 16836.5 | 16939 and 16734 |
| CCc1ccccc1-c1nc(CN[C@@H]2C[C@@H]3C[C@H]([C@H]2C)C3(C)C)c(C)o1 [C2 (8VP101)] | 13941.5 | 13992 and 13891 |

Same assay, conditions: NTS, 5hr, 5 µM

| SMILES | TGR inhibition visualized by TRFS-Green, Average | TGR inhibition visualized by TRFS-Green, single replicate |
| --- | --- | --- |
| Cc1oc(-c2ccc3c(c2)OCO3)nc1CN[C@@H]1C[C@@H]2C[C@H]([C@H]1C)C2(C)C [C1 (8VP70)] | 26920 | 26917 and 26923 |
| CCc1ccccc1-c1nc(CN[C@@H]2C[C@@H]3C[C@H]([C@H]2C)C3(C)C)c(C)o1 [C2 (8VP101)] | 26593 | 26274 and 26912 |

Same assay, conditions: NTS, 5hr, 15 µM

| SMILES | TGR inhibition visualized by TRFS-Green, Average | TGR inhibition visualized by TRFS-Green, single replicate |
| --- | --- | --- |
| Cc1oc(-c2ccc3c(c2)OCO3)nc1CN[C@@H]1C[C@@H]2C[C@H]([C@H]1C)C2(C)C [C1 (8VP70)] | 22092 | 23039 and 21145 |
| CCc1ccccc1-c1nc(CN[C@@H]2C[C@@H]3C[C@H]([C@H]2C)C3(C)C)c(C)o1 [C2 (8VP101)] | 16217 | 16278 and 16156 |

Same assay, conditions: NTS, 5hr, 30 µM

| SMILES | TGR inhibition visualized by TRFS-Green, Average | TGR inhibition visualized by TRFS-Green, single replicate |
| --- | --- | --- |
| Cc1oc(-c2ccc3c(c2)OCO3)nc1CN[C@@H]1C[C@@H]2C[C@H]([C@H]1C)C2(C)C [C1 (8VP70)] | 16893.5 | 16853 and 16934 |
| CCc1ccccc1-c1nc(CN[C@@H]2C[C@@H]3C[C@H]([C@H]2C)C3(C)C)c(C)o1 [C2 (8VP101)] | 14810 | 14697 and 14923 |

Same assay, conditions: NTS, 24hr, 5 µM

| SMILES | TGR inhibition visualized by TRFS-Green, Average | TGR inhibition visualized by TRFS-Green, single replicate |
| --- | --- | --- |
| Cc1oc(-c2ccc3c(c2)OCO3)nc1CN[C@@H]1C[C@@H]2C[C@H]([C@H]1C)C2(C)C [C1 (8VP70)] | 28552 | 28103 and 29001 |
| CCc1ccccc1-c1nc(CN[C@@H]2C[C@@H]3C[C@H]([C@H]2C)C3(C)C)c(C)o1 [C2 (8VP101)] | 29329.8 | 29329.8 |

Same assay, conditions: NTS, 24hr, 15 µM

| SMILES | TGR inhibition visualized by TRFS-Green, Average | TGR inhibition visualized by TRFS-Green, single replicate |
| --- | --- | --- |
| Cc1oc(-c2ccc3c(c2)OCO3)nc1CN[C@@H]1C[C@@H]2C[C@H]([C@H]1C)C2(C)C [C1 (8VP70)] | 23755.5 | 23599 and 23912 |
| CCc1ccccc1-c1nc(CN[C@@H]2C[C@@H]3C[C@H]([C@H]2C)C3(C)C)c(C)o1 [C2 (8VP101)] | 17780.7 | 17780.7 |

Same assay, conditions: NTS, 24hr, 30 µM

| SMILES | TGR inhibition visualized by TRFS-Green, Average | TGR inhibition visualized by TRFS-Green, single replicate |
| --- | --- | --- |
| Cc1oc(-c2ccc3c(c2)OCO3)nc1CN[C@@H]1C[C@@H]2C[C@H]([C@H]1C)C2(C)C [C1 (8VP70)] | 16807 | 16780 and 16834 |
| CCc1ccccc1-c1nc(CN[C@@H]2C[C@@H]3C[C@H]([C@H]2C)C3(C)C)c(C)o1 [C2 (8VP101)] | 15410.9 | 15410.9 |
